# From PubChem BioAssay (NCI)
#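 These data come from cells grown in 96-well plates and exposed to compound for 48 hours at five concentrations. Abbreviation: GI50, concentration required for 50% inhibition of growth. TGI is the concentration that stops growth completely.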 Where a SMILES comes first, the peptide text is derived from it. [ ]: non-standard residue; d: D form. The star is where a group is joined. ξ: configuration not given here. X6 = FC(F)(F)c1cc(NC(=S)*)cc(C(F)(F)F)c1; ξF = NC(Cc1ccccc1)C(=O)O
# Tests used:
# Experiment in all cases: DTP human tumour cell line panel, 48 h
# [1] = tested on: CAKI-1 renal
# [2] = tested on: SR leukemia
# [3] = tested on: K-562 leukemia
# [4] = tested on: SK-MEL-2 melanoma
# [5] = tested on: NCI-H23 lung
# [6] = tested on: M14 melanoma
# [7] = tested on: NCI-H226 lung
# [8] = tested on: HCC-2998 colon
# [9] = tested on: SNB-75 CNS
# [10] = tested on: MALME-3M melanoma
SMILES,GI50 [1] [µM],TGI [1] [µM],TGI [2] [µM],GI50 [3] [µM],TGI [3] [µM],GI50 [4] [µM],GI50 [5] [µM],TGI [5] [µM],GI50 [6] [µM],TGI [6] [µM],TGI [7] [µM],GI50 [8] [µM],TGI [8] [µM],GI50 [9] [µM],TGI [9] [µM],GI50 [10] [µM],TGI [10] [µM],GI50 [2] [µM],TGI [4] [µM],GI50 [7] [µM]
O=C1C(Cl)=C(Nc2cccc(Cl)c2)C(=O)N1Cc1ccc(Cl)cc1Cl,5.36,48.5,8.9,0.834,> 87.5,1.6,2.14,25.6,4.87,21.9,2.26,4.23,18.8,1.29,9.92,4.17,19,–,–,–
COC(=O)[C@@H](NC(=O)CNC(=O)[C@H]1CCCN1C(=O)C(Cc1ccccc1)NC(=S)Nc1cc(C(F)(F)F)cc(C(F)(F)F)c1)C(C)C (stereo not given in full) (X6-[ξF][dP]GV-OMe),2.71,10.5,8.58,3.27,30.1,2.86,2.53,8.02,3.33,10.5,3.42,3.39,11.9,1.52,3.49,3.88,15.1,2.57,6.86,1.65
O=C(COc1ccc(Br)cc1Br)N1N=C(c2ccc([N+](=O)[O-])o2)CC1(O)c1ccccc1 (stereo not given),–,65.3,8.77,–,> 100,–,–,36,–,21.9,36.4,–,23.1,–,45,–,25.1,–,31.3,–
CC1(C)CCc2c(c3c(c4c(=O)c(O)c(-c5ccc(O)cc5)oc24)OC(C)(C)CC3)O1,> 100,> 100,> 100,> 100,> 100,67.2,75.7,> 100,> 100,> 100,> 100,> 100,> 100,19.5,41.9,> 100,> 100,> 100,> 100,58.5
COc1cc(-c2nn(-c3ccc(NC(=O)c4ccc(Cl)c(C(F)(F)F)c4)cc3)cc2-c2ccncc2)ccc1Cl,1.71,7.29,> 37.8,1.81,5.67,3.12,3.06,> 100,2.51,8.26,> 100,3.22,> 100,1.23,6.83,1.46,5.05,3.2,> 28.5,5.31
COC(=O)CC1CCN(C#N)CC1CC[N+](=O)[O-] (stereo not given),–,> 100,> 100,–,> 100,–,–,–,–,> 100,> 100,–,> 100,–,> 100,–,> 100,–,> 100,–
CCOC(=O)CN1C(=O)c2cccc3cc([N+](=O)[O-])cc(c23)C1=O,–,–,0.381,–,2.03,–,–,4.52,–,11.5,23,–,14.8,–,22.2,–,5.23,–,2.87,–
